Experimental findings from patent US5480879A, “Quinolonecarboxylic acids” (Bayer Aktiengesellschaft, priority 1992, dated 1996) are described below.

Molecules are shown by their SMILES. In brackets after ≈: the same amount, converted by molar mass.

Test in all cases: MIC in microtitre plates, brain-heart infusion broth
Type in all cases: cell-based

For assay [1], the system named is Serratia marcescens 16040. The conditions noted are these: about 10^5 microorganisms/ml inoculum. The source says: (§1) The determination of the "minimum inhibitory concentrations" (MIC) was effected in mitrotitre plates using brain-heart infusion broth, with about 10^5 microorganisms/ml being employed as the inoculum.
A further assay relates to Escherichia coli Neumann. The conditions noted are these: about 10^5 microorganisms/ml inoculum.
Description: as §1

The subject of a further assay is Klebsiella sp. 63. The conditions noted are these: about 10^5 microorganisms/ml inoculum.
Description: as §1

Assay [2] has as its system Enterococcus faecalis 27101. The note with it: about 10^5 microorganisms/ml inoculum.
Description: as §1

The test system of assay [3] is Staphylococcus aureus ICB 25701. The note with it: ICB25701, about 10^5 microorganisms/ml inoculum.
Description: as §1

In assay [4] the test system is Staphylococcus aureus ICB 25768. The conditions noted are these: ICB25768, about 10^5 microorganisms/ml inoculum.
Description: as §1

Assay [5] deals with Enterococcus faecalis 9790. The note with it: about 10^5 microorganisms/ml inoculum.
Description: as §1

Assay [6] concerns Staphylococcus aureus 1756. The conditions noted are these: about 10^5 microorganisms/ml inoculum.
Description: as §1

Assay [7] deals with Staphylococcus aureus 133. The note with it: about 10^5 microorganisms/ml inoculum.
Description: as §1

On to `O=C(Cc1ccccc1)N[C@@H]1C(=O)N2C(C(=O)O)=C(CN3CCC[C@H]4CN(c5c(F)cc6c(=O)c(C(=O)O)cn(C7CC7)c6c5Cl)C[C@H]43)CS[C@H]12` [A, 7-[2-([6R,7R ]-2-Carboxy-8-oxo-7-phenylacetylamino-5-thia-1-aza-bicyclo[4.2.0]oct-2-en-3-ylmethyl)-[1S,6S]-2,8-diazabicyclo[4.3.0]non-8-yl]-8-chloro-1-cyclopropyl-6-fluoro-1,4-dihydro-4-oxo-3-quinolinecarboxylic acid], for which the MIC in assay [1] was 4 µg/mL (≈ 5.43 µM); against Escherichia coli Neumann, 0.03 µg/mL (≈ 0.0407 µM); in the assay on Klebsiella sp. 63 it was 0.125 µg/mL (≈ 0.17 µM); in assay [2] it was 0.25 µg/mL (≈ 0.34 µM); in assay [3], 0.25 µg/mL (≈ 0.34 µM); in assay [4], 2 µg/mL (≈ 2.72 µM). Also, the values for the MIC in assay [5], in assay [6] and in assay [7] were 0.25 µg/mL (≈ 0.34 µM), 0.004 µg/mL (≈ 0.00543 µM) and 0.03 µg/mL (≈ 0.0407 µM), respectively.

`O=C(Cc1ccccc1)N[C@@H]1C(=O)N2C(C(=O)O)=C(CN3CCN(c4c(F)cc5c(=O)c(C(=O)O)cn(C6CC6)c5c4Cl)CC3)CS[C@H]12` [B]: the minimum inhibitory concentration (MIC) in assay [1] was found to be 16 µg/mL (≈ 23 µM); in the assay with Escherichia coli Neumann, 0.25 µg/mL (≈ 0.359 µM); against Klebsiella sp. 63 it was 1 µg/mL (≈ 1.44 µM); in [2], 8 µg/mL (≈ 11.5 µM); in [3] it was 32 µg/mL (≈ 46 µM); in assay [4] it was 128 µg/mL (≈ 184 µM). The MIC in assay [5] was found to be 8 µg/mL (≈ 11.5 µM); in [6], 0.03 µg/mL (≈ 0.0431 µM); in assay [7], 0.125 µg/mL (≈ 0.18 µM).

The MIC is the lowest concentration found to suppress growth. Low values mean a more susceptible organism, high ones a less susceptible organism.
